Measured values from patent EP4813991A1 (iLeadBMS Co., Ltd., priority 2023, dated 2025).
pIC50: −log10 of the molar value.

Key:
CDK2 = CDK2 (Homo sapiens, UniProt P24941); assay: CDK2 kinase inhibitory activity assay and selectivity over CDK12; format: biochemical; settings: for pIC50: kinase reaction 120 minutes, 33P-gamma-ATP; for CDK2/CDK12: ratio of CDK2 IC50 to CDK12 IC50
Protocol: Before initiating the CDK1 and CDK2 kinase reactions, each Example compound was dissolved and diluted in DMSO as a solvent across 9 concentration ranges at room temperature. The diluted solutions were then incubated with a mixture of kinase and substrate (and cofactors, if required) for 20 minutes. Next, radioisotope-labeled ATP (^33P-gamma-ATP) was added to proceed with the kinase reaction at room temperature for 120 minutes. After the reaction was completed, the reaction mixture was transferred to a filter paper that binds the radioisotope-labeled catalytic product (^33P-substrate). Unreacted ^33P-ATP was removed by washing with 0.75 % phosphoric acid, and then the radioactive phosphorylated substrate remaining on the filter paper was measured. Kinase activity data were expressed as a percentage of the kinase activity remaining in the test sample compared to a DMSO control group. The half-maximal inhibitory concentration (IC50) for each kinase was calculated using Prism software.
The CDK1 and CDK2 kinase inhibitory activities of the Example compounds measured by the above method were evaluated according to the following criteria, and the results are presented in Table 14.

[1] = system: MDA-MB-231 breast cancer cells; assay: Proliferation inhibitory activity assay against MDA-MB-231 breast cancer cells; format: cell-based; settings: Homo sapiens, 72 hours, CellTiter Glo, relative IC50
Procedure, shortened: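 Cells grown in L-15 with 10% FBS at 37 °C, 0% CO2, then exposed next day to compounds at 9 concentrations (DMSO vehicle) for 72 h. Viability read by CellTiter Glo luminescence; relative IC50 from dose-response curve fit.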

CDK12 = CDK12 (Homo sapiens, UniProt Q9NYV4); assay: Cellular CDK12 inhibitory activity assay (Ser2 phosphorylation of RNA polymerase II subunit B1 CTD in MDA-MB-231 cells); format: cell-based; design: using MDA-MB-231 breast cancer cells; endogenous in cells; host or cells: MDA-MB-231; settings: MDA-MB-231 cells, 6 hours treatment; read-out: pRpbl CTD S2 IC50
Procedure, shortened: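 MDA-MB-231 cells in L-15 with 10 % FBS were treated with compound at 9 concentrations for 6 h at 37 °C, 0 % CO2. In-Cell Western read phospho-Ser2 and total RNA polymerase II CTD on a Li-COR Odyssey; IC50 from 4-parameter dose-response fit.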

AGS cells = assay: Gastric cancer cell proliferation inhibitory activity (CellTiter Glo), AGS; format: cell-based; settings: Homo sapiens, AGS, 72 hours, relative IC50
Protocol: (§1) Experiments were performed using four types of gastric cancer cell lines (AGS, SNU-1, KATO-III, and MKN45) to measure the cell proliferation inhibitory ability of each Example compound. For AGS cells, 90 µL of cell suspension was dispensed into a 96-well plate using F-12K (Gibco) medium containing 10 % FBS, followed by incubation in a cell incubator at 37 °C and 5 % CO2. For SNU-1 and MKN45 cells, 90 µL of cell suspension was dispensed into a 96-well plate using RPMI1640 (Gibco) medium containing 10 % FBS, followed by incubation in a cell incubator at 37 °C and 5 % CO2. For KATO-III cells, 90 uL of cell suspension was dispensed into a 96-well plate using IMDM (Gibco) medium containing 10 % FBS, followed by incubation in a cell incubator at 37 °C and 5 % CO2. The next day, each Example compound dissolved and diluted in DMSO across 9 concentration ranges and a DMSO control group were added at 10 µL to each 96-well plate and treated for 72 hours. After completion of the compound treatment, 100 µL of CellTiter Glo (Promega) reagent was added to each well of the 96-well plate, followed by shaking for 10 minutes and standing at room temperature for 10 minutes. Luminescence signals were measured after inserting the 96-well plate into an Envision plate reader (PerkinElmer). Relative IC50 values were calculated by fitting a dose-response curve using XLfit (IDBS Ltd) software.
(§2) The gastric cancer cell proliferation inhibitory activities of the Example compounds measured by the method described above were evaluated according to the following criteria, and the results are presented in Table 16.

SNU-1 = assay: Gastric cancer cell proliferation inhibitory activity (CellTiter Glo), SNU-1; format: cell-based; settings: Homo sapiens, SNU1, 72 hours, relative IC50
Protocol: as §1, §2

KATO-III cells = assay: Gastric cancer cell proliferation inhibitory activity (CellTiter Glo), KATO-III; format: cell-based; settings: Homo sapiens, KATO III, 72 hours, relative IC50
Protocol: as §1, §2

CDK12, sequence (Q9NYV4 whole entry, species assumed): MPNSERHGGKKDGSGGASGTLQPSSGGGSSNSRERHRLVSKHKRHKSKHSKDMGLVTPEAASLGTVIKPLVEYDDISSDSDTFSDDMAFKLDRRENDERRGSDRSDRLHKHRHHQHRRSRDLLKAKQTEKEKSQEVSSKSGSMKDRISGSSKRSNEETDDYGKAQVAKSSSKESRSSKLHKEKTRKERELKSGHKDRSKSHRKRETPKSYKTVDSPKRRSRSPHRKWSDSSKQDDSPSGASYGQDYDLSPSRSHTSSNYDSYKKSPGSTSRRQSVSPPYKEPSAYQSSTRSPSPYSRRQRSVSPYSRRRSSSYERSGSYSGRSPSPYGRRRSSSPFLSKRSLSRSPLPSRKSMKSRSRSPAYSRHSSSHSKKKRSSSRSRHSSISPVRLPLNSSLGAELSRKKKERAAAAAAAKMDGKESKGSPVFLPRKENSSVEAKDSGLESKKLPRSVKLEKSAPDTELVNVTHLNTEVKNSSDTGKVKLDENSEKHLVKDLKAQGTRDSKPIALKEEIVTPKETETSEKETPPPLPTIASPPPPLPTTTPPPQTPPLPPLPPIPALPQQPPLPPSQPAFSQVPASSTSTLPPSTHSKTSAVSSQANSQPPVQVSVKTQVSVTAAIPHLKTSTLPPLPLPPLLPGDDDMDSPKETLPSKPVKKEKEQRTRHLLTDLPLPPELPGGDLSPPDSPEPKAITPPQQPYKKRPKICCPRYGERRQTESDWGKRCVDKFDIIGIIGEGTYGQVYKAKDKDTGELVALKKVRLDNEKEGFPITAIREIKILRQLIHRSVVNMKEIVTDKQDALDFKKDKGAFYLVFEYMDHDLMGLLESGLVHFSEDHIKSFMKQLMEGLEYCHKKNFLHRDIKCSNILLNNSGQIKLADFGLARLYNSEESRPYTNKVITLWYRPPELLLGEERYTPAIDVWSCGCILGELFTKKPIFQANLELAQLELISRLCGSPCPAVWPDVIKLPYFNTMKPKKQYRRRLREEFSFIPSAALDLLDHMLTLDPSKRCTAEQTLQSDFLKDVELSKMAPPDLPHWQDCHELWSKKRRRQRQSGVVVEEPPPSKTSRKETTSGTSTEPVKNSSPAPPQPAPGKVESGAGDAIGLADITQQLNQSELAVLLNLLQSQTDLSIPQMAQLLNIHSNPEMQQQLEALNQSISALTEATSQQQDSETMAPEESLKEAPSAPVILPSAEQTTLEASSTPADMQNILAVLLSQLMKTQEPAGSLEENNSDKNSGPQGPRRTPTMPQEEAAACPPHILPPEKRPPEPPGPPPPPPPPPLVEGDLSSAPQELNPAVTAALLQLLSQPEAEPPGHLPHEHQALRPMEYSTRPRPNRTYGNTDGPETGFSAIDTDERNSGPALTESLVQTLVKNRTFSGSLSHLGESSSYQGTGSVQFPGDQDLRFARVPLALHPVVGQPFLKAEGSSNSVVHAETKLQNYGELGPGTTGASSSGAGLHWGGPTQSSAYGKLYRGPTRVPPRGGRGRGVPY
CDK12, sequence (O75909 whole entry partner, species assumed): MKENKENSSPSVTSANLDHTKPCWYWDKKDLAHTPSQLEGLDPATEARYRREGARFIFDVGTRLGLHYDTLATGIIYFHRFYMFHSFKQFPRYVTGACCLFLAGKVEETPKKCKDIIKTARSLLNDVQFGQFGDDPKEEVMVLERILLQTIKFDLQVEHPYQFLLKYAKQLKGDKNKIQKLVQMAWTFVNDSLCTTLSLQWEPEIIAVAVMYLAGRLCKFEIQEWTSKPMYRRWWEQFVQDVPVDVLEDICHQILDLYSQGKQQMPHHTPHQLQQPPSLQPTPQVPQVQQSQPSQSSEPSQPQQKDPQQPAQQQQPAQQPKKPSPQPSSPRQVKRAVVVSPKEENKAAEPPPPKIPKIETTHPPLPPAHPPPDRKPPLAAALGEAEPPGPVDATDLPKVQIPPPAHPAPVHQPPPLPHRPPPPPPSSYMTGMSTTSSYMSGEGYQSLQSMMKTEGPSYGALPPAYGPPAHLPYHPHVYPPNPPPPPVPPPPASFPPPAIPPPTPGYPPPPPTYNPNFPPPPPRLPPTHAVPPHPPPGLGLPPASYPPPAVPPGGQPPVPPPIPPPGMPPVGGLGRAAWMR

pIC50 (AGS cells)	pIC50 (SNU-1)	pIC50 (KATO-III cells)	Compound	pIC50 (CDK2)	pIC50 [1]	pIC50 (CDK12)	CDK2/CDK12 (CDK2)
			Nc1ncc(-c2cc(NCc3nc4cc(Cl)c(Cl)cc4[nH]3)c3ncc(C(F)(F)F)n3n2)cn1 [Example 40]	< 6.00	≥ 7.30	> 6.52	
≥ 6.70	≥ 6.70	≥ 6.70	CN1CCN(c2cc(NCc3nc4ccc(F)c(F)c4[nH]3)c3ncc(C(F)(F)F)n3n2)CC1 [Example 8, N-((6,7-difluoro-1H-benzo[d]imidazol-2-yl)methyl)-6-(4-methylpiperazin-1-yl)-3-(trifluoromethyl)imidazo[1,2-b]pyridazin-8-amine]	< 6.00	≥ 7.30	> 6.52	B (100-fold < CDK1/CDK12 or CDK2/CDK12 ≤ 500-fold)
≥ 6.70	≥ 6.70	≥ 6.70	CN1CCN(c2cc(NCc3nc4cc(Cl)c(Cl)cc4[nH]3)c3ncc(C(F)(F)F)n3n2)CC1 [Example 29, N-((5,6-dichloro-1H-benzo[d]imidazol-2-yl)methyl)-6-(4-methylpiperazin-1-yl)-3-(trifluoromethyl)imidazo[1,2-b]pyridazin-8-amine]	< 6.00	≥ 7.30	> 6.52	

Compound	pIC50 (AGS cells)	pIC50 (SNU-1)	pIC50 (KATO-III cells)	pIC50 (CDK2)	pIC50 [1]	pIC50 (CDK12)	CDK2/CDK12 (CDK2)
N#CC1CN(c2cc(NCc3nc4cc(Cl)c(Cl)cc4[nH]3)c3ncc(C(F)(F)F)n3n2)C1 [Example 30, 1-(8-(((5,6-dichloro-1H-benzol[d]imidazol-2-yl)methyl)amino)-3-(trifluoromethyl)imidazo[1,2-b]pyridazin-6-yl)azetidine-3-carbonitrile]	≥ 6.70	≥ 6.70	≥ 6.70	< 6.00	≥ 7.30	> 6.52	C (CDK1/CDK12 or CDK2/CDK12 ≤ 100-fold)
